Experimental data as given in paper PMC6413125 (International Journal of Molecular Sciences, 2019).

What was measured:
Assay type in all cases: biochemical
Aβ21–40 = biological target: T1, Aβ21–40 (Homo sapiens, UniProt P05067); test: ESI-MS adducts ([…] and […]); IC50 from ThT aggregation assay
T1 construct: gene APP

[1] = biological target: T2, Yeast Prion Protein Sup35p (Sup35p7–13) (Saccharomyces cerevisiae, UniProt P05453)
T2 construct: gene SUP35

[2] = biological target: T3, nucleophosmin 1 (NPM1_264–277) (Homo sapiens, UniProt P06748); test: ESI-MS adducts; IC50 from ThT aggregation assay; CD
T3 construct: gene NPM1; helix H2 of C-terminal domain, residues 264–277 ([…])

T1 sequence (P05067 692-711): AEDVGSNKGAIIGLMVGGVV

In the case of CSC1=[S+][Pt-2]([Cl])([S+](C)(C)=O)[O]C(c2cccc(O)c2)=C1 (stereo not drawn) [compound 1, 1], the IC50 (Aβ21–40) is reported as 19.9 ± 1.6 µM, the IC50 [1] is reported as 55 ± 1.12 µM and the IC50 [2] is reported as 62.3 ± 1.3 µM.
